Assay [1] deals with aged normal human primary epidermal keratinocytes. The assay can be described thus: MTT assay (SDH activity), aged keratinocytes. In kind it is cell-based. The procedure:
Culturing normal human epithelial cells. The pooled normal human primary epidermal keratinocytes were purchased from Cambrex (Baltimore, Md.) and sub-cultured in the specific growth media provided by the manufacturer (KGM-2). […] Exponentially growing keratinocytes were treated and harvested in their early passages (2-3 passages).

Assay [2] deals with NS-SV-AC cells. Kind of assay: Intracellular ROS levels (DFDA assay), NS-SV-AC cells. In kind it is cell-based, human. The following applies: EGCG 15-200 μM, 60 minutes. The procedure:
Measurement of intracellular ROS levels. The ROS assay measures the accumulation of intracellular ROS levels. The non-fluorescent dye DFDA passively diffuses into cells, where the acetates are cleaved by intracellular esterases. […] Thus, values of the fluorescence in the cell cultures are constantly rising in this assay. […] The intracellular ROS levels were measured by using a fluorescence plate reader (BIO-TEK FL600, Bio-Tek Instruments, Inc., Winooski, Vt.), at an excitation wavelength of 485 nm and an emission wavelength of 530 nm.

The subject of assay [3] is OSC-4 cells. Kind of assay: MTT assay (SDH activity), OSC-4 cells. It is filed as cell-based, human. Conditions: 24 hours. Background: Tetrazolium assays rely on reduction of a dye to a coloured formazan, in cell work by metabolically active cells.
Description: MTT [3-(4,5-dimethylthiazol-2-yl)-2,5-diphenyl tetrazolium bromide] assay. This method directly detects the activity of mitochondrial succinate dehydrogenase (SDH). Changes in SDH activity is a measurement of cell viability when stress is introduced in cell culture through chemical or physical means. Cells (1.5×10^4 cells/well) were seeded in a 96-well microplate and treated with the indicated doses of EGCG for 24 hours. After the treatment, the cells in each well were washed with 200 μl of phosphate-buffered saline (PBS), incubated with 100 μl of 2% MTT in a solution of 0.05 M Tris, 0.5 mM MgCl2, 2.5 mM CoCl2, and 0.25 M disodiumn succinate as substrate (Sigma) at 37° C. for 30 minutes. Cells were fixed in situ by the addition of 100 μl of 4% formalin in 0.2 M Tris (pH 7.7), and after a 5 minute incubation at room temperature liquid was removed and the wells were allowed to dry. Each well was rinsed with 200 μl water and cells were solubilized by the addition of 100 μl of 6.35% 0.1 N NaOH in DMSO. The colored formazan product was measured by a Thermo MAX micro plate reader (Molecular Devices Corp., Sunnyvale, Calif.) at a wavelength of 562 nm. Experiments were repeated three times with triplicate samples for each experiment.
Assay [4] deals with OSC-4 cells. Kind of assay: BrdU incorporation assay, OSC-4 cells. In kind it is cell-based, human. Conditions: for DNA synthesis (BrdU assay): 24 hours. The procedure: DNA synthesis assay. DNA synthesis was analyzed by a BrdU Cell Proliferation Assay Kit (Oncogene Research Products, Boston, Mass.). […] After the treatment, cells were labeled with BrdU for 2 hours at 37° C. and reacted with anti-BrdU antibody. Unbound antibody in each well was removed by rinsing, and horseradish peroxidase-conjugated goat anti-mouse antibody was added to each well. The color reaction was visualized according to the protocol provided by the manufacturer.
DNA synthesis assay. DNA synthesis was analyzed by a BrdU cell proliferation assay kit (Oncogene Research Products, Boston, Mass.). […] After the treatment, cells were labeled with BrdU for 2 hours at 37° C. and reacted with anti-BrdU antibody. Unbound antibody in each well was removed by rinsing, and horseradish peroxidase-conjugated goat anti-mouse IgG antibody was added to each well. The color reaction to visualize the secondary antibody was carried out according to the protocol provided by the manufacturer.

The subject of assay [5] is OSC-GFP cells and NHEK. Kind of assay: Co-culture of OSC-GFP cells and NHEK, double fluorescence. It is filed as cell-based, human. Conditions: overlay co-culture, 100 μM EGCG, 24 hour. The procedure: Co-culture and GTPP treatment. Various patterns of co-culture of the tumor/normal cells were achieved by different designs. Examples include:
1. Adjacent co-culture design. OSC-GFP cells (5×10^4) were seeded in the center of a culturing device (8-well chamber-slide, Nagle Nunc International, Naperville, Ill.) through a cloning cylinder (Fisher Scientific/Scienceware, Tapered Design, 4.7×8 mm) in DMEM/F12 medium and allowed to attach for 24 hours. NHEK (10^5) in KGM-2 were then seeded in the area next to the cylinder. After 24 hours, the cylinder was removed and the medium was replaced by a 50/50 mix of KGM-2 and DMEM/F12 and the cells were allowed to grow for another 24 hours prior to treatment (FIG. 21, right).
2. Overlay design, which could be adapted for high throughput screening in 96 well plate. […]
4. Tumor cell migration was monitored by co-culturing OSC-GFP and NHEK in wells of a 24 well plate as indicated in “1”, except the NHEK cell number was doubled. After treatment, tumor cell migration into NHEK territory was recorded by fluorescent microscopy at selected time points. […]
Immunofluorescence and photography. […] Fluorescence was generated by a ZEISS AttoArc 2 source. […]
The total fluorescence intensities of images were quantified using the BIOQUANT NOVA PRIME 6.0 software (Bioquant Co., Nashville, Tenn.). […]

In assay [6] the test system is caspase 14. The assay can be described thus: Immunoblot of caspase 14 protein in NHEK. It is filed as cell-based, human. The procedure:
To identify additional factors those suppress EGCG -induced apoptosis and facilitate cell differentiation in NHEK, exponentially growing NHEK (Cambrex, Baltimore, Md.) were exposed to 100 μM EGCG for 0, 2, 6 and 24 hours, prior to total RNA isolation using the Qiagen RNeasy mini kit (Valencia, Calif.), which was followed by RT-PCR labeling and hybridization with the Human Apoptosis Macroarray membrane (Sigma-Genosys, The Woodlands, Tex.). Total cell lysates also were collected following a variety of EGCG treatments. The protein levels for caspase 14 and p21 were determined by immuno-blotting using antibodies specific for caspase 14 and p21 (Santa Cruz Biotechnology, Santa Cruz, Calif.).

Assay [7] deals with NS-SV-AC cells. The assay can be described thus: Mitochondrial SDH activity in immortalized salivary glandular cells. In kind it is cell-based, human. The following applies: NS-SV-AC and two other immortalized salivary glandular cell lines.
Description: MTT [3-(4,5-dimethylthiazol-2-yl)-2,5-diphenyl tetrazolium bromide] assay. […] Cells (1.5×10^4 cells/well) were seeded in a 96-well microplate and treated with the indicated doses of EGCG for 24 hours. After the treatment, the cells in each well were washed with 200 μl of phosphate-buffered saline (PBS), incubated with 100 μl of 2% MTT in a solution of 0.05 M Tris, 0.5 mM MgCl2, 2.5 mM CoCl2, and 0.25 M disodiumn succinate as substrate (Sigma) at 37° C. for 30 minutes. Cells were fixed in situ by the addition of 100 μl of 4% formalin in 0.2 M Tris (pH 7.7), and after a 5 minute incubation at room temperature liquid was removed and the wells were allowed to dry. Each well was rinsed with 200 μl water and cells were solubilized by the addition of 100 μl of 6.35% 0.1 N NaOH in DMSO. The colored formazan product was measured by a Thermo MAX micro plate reader (Molecular Devices Corp., Sunnyvale, Calif.) at a wavelength of 562 nm. Experiments were repeated three times with triplicate samples for each experiment.

“Also recorded” adds a separate entry of the source.

As to `O=C(O[C@@H]1Cc2c(O)cc(O)cc2O[C@@H]1c1cc(O)c(O)c(O)c1)c1cc(O)c(O)c(O)c1` [EGCG, (−)-epigallocatechin-3-gallate], the “SDH activity and BrdU incorporation” value in assay [1] (EGCG concentrations higher than 100 μM) was “consistently induced both SDH activity and BrdU incorporation”. Besides, the “activation of succinate dehydrogenase (SDH), MTT assay” value in assay [1] (keratinocytes 25 days in culture, 24 h treatment) is reported as “up to 37 fold”. Besides, the “intracellular ROS levels” value in assay [2] is recorded as “inhibit ROS production at background levels; also recorded: reduced the ROS to background levels”. Also, the “mitochondrial SDH activity” value in assay [3] (50 μM EGCG) is “did not show significant changes”; in assay [3] (200 μM EGCG), “significantly reduced SDH activity and DNA synthesis”. For the same compound, the “SDH activity, of untreated control” value in assay [3] (200 μM EGCG) is “less than 75%”. In addition, the “DNA synthesis (BrdU assay)” value in assay [4] (50 μM EGCG) was “did not show significant changes”; in assay [4] (200 μM EGCG) it was “significantly reduced SDH activity and DNA synthesis”. Besides, in assay [4] (200 μM EGCG), the “BrdU incorporation, of control levels” value is reported as “approximately 75%”. Also, the “reduction of BrdU incorporation” value in assay [4] (200 μM EGCG, 24-hour period) is listed as “approximately 25%”. The “ratio of fluorescence intensities of rhodamine (red)/FITC (green)” value in assay [5] worked out at 1.23. In assay [6] (30 μM EGCG (Example 10)), the “production of immunoreactive caspase 14 increased” value worked out at 5 fold. The “increase in caspase 14 protein” value in assay [6] (30 μM EGCG, 48 hours) is 26 fold; in assay [6] (100 μM EGCG, 24 hours), 2 fold; in assay [6] (100 μM EGCG, 48 hours) it was 5 folds; in assay [6] (EGCG at or below 50 μM, 24 hours) it was > 5 fold. For the same compound, the “tolerance, mitochondrial SDH activity” value in assay [7] is “tolerant to high concentrations of EGCG”.

Values taken from patent US20040191842A1, “Chemopreventive and therapeutic aspects of polyphenolic compositions and assays” (Medical College of Georgia Research Institute, Inc., priority 2002, published 2004).
